From patent US10233222B2, “Methods, compositions, diagnostics and assays for the treatment of Alzheimer's disease” (priority 2014, dated 2019)

Molecular target: T1, Aβ42-SYP interaction (Homo sapiens, UniProt P08247)
T1 construct: His6; made in house; host or cells: insect cells (SYP)
Test: SPR binding of Aβ42 to SYP in the presence of cholesterol hemisuccinate
Details: increasing concentrations of cholesterol hemisuccinate
Description: Surface Plasmon Resonance: Binding studies were performed on a Biacore 3000 or a BiOptix 404 pi, with similar results. For the Biacore, a CMS chip was used and for the BiOptix instrument, a CMV150 chip was employed. […] Recombinant human SYP, containing a His(6)-tag expressed in insect cells, was a gift of J. Mapes and A. DeFazio at CU Boulder. Bovine serum albumin (Sigma, St. Louis, Mo.), Interleukin 1 receptor antagonist (gift of Synergen, Inc., Boulder, Colo.), and SLC35F1 (gift of G. Chang, UCSD) were used as control proteins. Binding at a flow rate of 20 μl/min was in 0.15M sodium chloride, 0.03M sodium HEPES, pH 7.4, 0.009% Fos-choline 14 (Anatrace, Santa Clara, Calif.) for all samples.
We therefore asked if cholesterol inhibits the Aβ42-SYP interaction.

T1 sequence (P08247 whole entry): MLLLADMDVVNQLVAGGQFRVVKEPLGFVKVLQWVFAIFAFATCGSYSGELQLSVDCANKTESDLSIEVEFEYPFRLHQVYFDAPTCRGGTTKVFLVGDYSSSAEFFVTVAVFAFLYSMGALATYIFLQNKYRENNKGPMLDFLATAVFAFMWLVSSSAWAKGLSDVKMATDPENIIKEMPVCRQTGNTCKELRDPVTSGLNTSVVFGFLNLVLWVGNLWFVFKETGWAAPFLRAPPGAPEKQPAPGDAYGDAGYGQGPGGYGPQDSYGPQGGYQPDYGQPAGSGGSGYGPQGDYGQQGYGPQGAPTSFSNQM

cholesterol hemisuccinate
inhibition of binding of Aβ42 to SYP: robust concentration dependent inhibition of binding
